Test system: SARS-CoV-2
Assay: In vitro SARS-CoV-2 plaque inhibition assay in Vero E6 cells
Type: cell-based

Question: How did the “antiviral effects (plaque inhibition)” value (10 µM, 48 h) turn out when `COC(=O)N[C@H](C(=O)N[C@@H](Cc1ccccc1)[C@@H](O)CN(Cc1ccc(-c2ccccn2)cc1)NC(=O)[C@@H](NC(=O)OC)C(C)(C)C)C(C)(C)C` [Atazanavir] was run?
Answer: no antiviral effects

Question: Which “reduction of the production of SARS-CoV-2 plaques” value (10 µM, 48 h) does the source give for `CC[C@H](NC(=O)[C@H](C)NC)C(=O)N1C[C@@H](O)C[C@H]1Cc1c(-c2[nH]c3cc(F)ccc3c2C[C@@H]2C[C@H](O)CN2C(=O)[C@H](CC)NC(=O)[C@H](C)NC)[nH]c2cc(F)ccc12` [Birinapant] here?
Answer: 37%

Question: And the IC50 (Severe acute respiratory syndrome coronavirus 2, Vero C1008, estimated, read-out: IC50 plaque formation)?
Answer: 18 ± 3.6 µM
